Laboratory results taken from PMC3314654, “Characterization of Rhodamine-123 as a Tracer Dye for Use In In vitro Drug Transport Assays” (PLoS ONE, 2012).

What was measured:
ABCB1 (MDR1) = ABCB1 (MDR1) (Homo sapiens, UniProt P08183); assay: R123 efflux from MDCKII-ABCB1 versus naive MDCKII cells (Km); format: cell-based; settings: mdck
OATP1A2 = target: T1, OATP1A2 (Homo sapiens, UniProt P46721); assay: R123 uptake in BacMam-transduced HEK293-MSRII cells (Km); format: cell-based
T1 construct: gene SLCO1A2
T1 sequence (P46721 1-670): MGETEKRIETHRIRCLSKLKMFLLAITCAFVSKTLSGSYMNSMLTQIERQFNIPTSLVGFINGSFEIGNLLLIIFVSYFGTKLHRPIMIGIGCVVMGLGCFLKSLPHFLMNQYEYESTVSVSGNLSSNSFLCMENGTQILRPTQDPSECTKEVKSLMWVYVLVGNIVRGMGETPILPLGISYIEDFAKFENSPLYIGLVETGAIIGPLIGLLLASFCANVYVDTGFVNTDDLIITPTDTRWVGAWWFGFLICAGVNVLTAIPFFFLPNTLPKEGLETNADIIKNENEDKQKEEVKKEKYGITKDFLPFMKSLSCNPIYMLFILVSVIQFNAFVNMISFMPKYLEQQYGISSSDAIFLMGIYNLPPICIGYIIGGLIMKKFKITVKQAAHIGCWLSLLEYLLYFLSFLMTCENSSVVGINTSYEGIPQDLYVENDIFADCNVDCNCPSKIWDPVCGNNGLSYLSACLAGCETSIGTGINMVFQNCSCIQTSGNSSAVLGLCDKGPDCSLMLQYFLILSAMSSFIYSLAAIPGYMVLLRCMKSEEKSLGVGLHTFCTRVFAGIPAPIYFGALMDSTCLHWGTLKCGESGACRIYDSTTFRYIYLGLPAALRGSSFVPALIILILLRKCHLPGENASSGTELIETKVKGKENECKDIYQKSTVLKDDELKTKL

ABCB1 (MDR1), sequence (P08183 whole entry): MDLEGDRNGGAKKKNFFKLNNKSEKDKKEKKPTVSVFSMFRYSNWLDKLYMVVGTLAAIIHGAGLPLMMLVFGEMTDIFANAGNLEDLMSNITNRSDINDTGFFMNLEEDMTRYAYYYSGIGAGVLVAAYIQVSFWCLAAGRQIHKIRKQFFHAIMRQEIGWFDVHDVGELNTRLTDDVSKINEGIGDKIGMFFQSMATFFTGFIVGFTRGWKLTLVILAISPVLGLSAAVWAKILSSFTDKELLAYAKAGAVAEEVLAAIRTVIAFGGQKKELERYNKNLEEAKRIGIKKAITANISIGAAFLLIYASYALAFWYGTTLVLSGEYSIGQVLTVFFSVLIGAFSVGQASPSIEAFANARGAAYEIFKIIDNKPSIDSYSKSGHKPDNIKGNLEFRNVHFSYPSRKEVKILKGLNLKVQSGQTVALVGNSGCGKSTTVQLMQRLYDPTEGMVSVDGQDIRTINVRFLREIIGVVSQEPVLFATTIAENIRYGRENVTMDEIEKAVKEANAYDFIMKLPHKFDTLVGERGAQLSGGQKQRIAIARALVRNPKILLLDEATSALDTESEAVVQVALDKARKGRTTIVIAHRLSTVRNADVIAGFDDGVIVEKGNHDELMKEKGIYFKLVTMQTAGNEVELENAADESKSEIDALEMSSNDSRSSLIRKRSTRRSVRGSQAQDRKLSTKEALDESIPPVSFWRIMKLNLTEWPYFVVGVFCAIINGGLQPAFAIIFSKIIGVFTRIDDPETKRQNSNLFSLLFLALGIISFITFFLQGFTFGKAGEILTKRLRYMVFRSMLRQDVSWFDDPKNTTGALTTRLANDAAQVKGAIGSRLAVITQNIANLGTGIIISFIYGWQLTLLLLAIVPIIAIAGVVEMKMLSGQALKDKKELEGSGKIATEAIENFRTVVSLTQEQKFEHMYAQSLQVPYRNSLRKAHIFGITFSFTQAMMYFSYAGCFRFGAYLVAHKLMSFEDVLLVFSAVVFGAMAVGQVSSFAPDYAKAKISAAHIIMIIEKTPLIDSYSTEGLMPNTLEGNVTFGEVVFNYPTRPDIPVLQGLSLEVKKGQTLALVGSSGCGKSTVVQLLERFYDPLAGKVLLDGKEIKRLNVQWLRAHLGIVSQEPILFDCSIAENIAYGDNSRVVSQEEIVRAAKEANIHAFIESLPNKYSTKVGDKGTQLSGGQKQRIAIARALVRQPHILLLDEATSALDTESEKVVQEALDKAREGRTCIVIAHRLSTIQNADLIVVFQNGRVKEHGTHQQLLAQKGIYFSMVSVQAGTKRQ

Structure (SMILES): COC(=O)c1ccccc1-c1c2ccc(=N)cc-2oc2cc(N)ccc12 [R123, Rhodamine 123]
- Km (ABCB1 (MDR1)): 17.5 ± 2.8 µM
- Km (OATP1A2): 0.3 ± 0.1 µM
